Data taken from US12569470B2, “Vasodilator and use thereof” (Bioradical Research Institute Corp., priority 2019, dated 2026).

How the values were obtained:
[1] = NO-eliminating ability by ESR with NO donor NOC-7 and Carboxy-PTIO
Procedure: It was examined whether the vasodilator of the present invention has NO-eliminating ability. Specifically, as to the NO generation reaction, NOC-7 of NO donor was used to examine whether the NO concentration is reduced in the presence of BisEP-C3. First, 20 μl of a BisEp-C3 solution was added to 140 μl of a phosphate buffer solution (pH 7.4) having a concentration of […] so as to achieve a predetermined concentration (0, 25, 50, 100, 200, 400, or 600 μmol/1), and further 20 μl of a spin-trapping agent (100 μmol/1), Carboxy-PTIO(2-(4-Carboxyphenyl)-4, 4, 5, 5-tetramethylimidazoline-1-oxyl-3-oxide, sodium salt, final concentration 10 μmol/1) solution and 20 μl of a NO donor solution (10 mmol/1NOC-7 (1-Hydroxy-2-oxo-3-(N-methyl-3-aminopropyl)-3-methyl-1-triazene, final concentration […])) were added and mixed. The NO donor solution was prepared using a sodium hydroxide solution having a concentration of 0.1 mmol/1. Then, after the mixing, the mixture was incubated at room temperature for 3 minutes, and the obtained reaction solution was measured under the following ESR measurement conditions 2. Then, the proportion of the decrease in the signal intensity was calculated as the NO-eliminating ability with the signal intensity of the sample with no BisEP-C3 (0 μmol/1) being 100%.
ESR Measurement Conditions 2 […]

[2] = test system: blood vessel of the mesentery; experiment: LPS-induced vascular disorder of the mesentery, bleeding and leukocyte rolling; format: in vivo, rat
Text: Eight-week-old or older female rats (Wistar, body weight: approximately 200 g, n=1) were anesthetized by subcutaneous administration of urethane (1.75 g/kg body weight). The rats were then opened and fixed on a fixing table in such a manner that the mesentery of the rats was observable. After the fixing, the fixing table was placed under a microscope (Nikon OPTIphoto, produced by Nikon Corporation) so that the mesentery could be observed. In addition, a catheter was placed in the groin vein of the rat.
1μg/ml of lipopolysaccharide (LPS) (produced by Sigma-Aldrich Co., Ltd.) derived from Pseudomonas aeruginosa (ATCC27316) was added dropwise once (20 μl, 20 ng/sight) and allowed to stand for 30 minutes. Next, a saline solution containing BisEP-C3 prepared in the same manner as in Example 9 was rapidly administered intravenously via the catheter so as to be 1 mg/kg body weight. After the intravenous administration, the saline solution was administered continuously so as to be 1 mg/kg body weight per hour (0.15 ml/hour). […] In the obtained photograph, the area of the region where bleeding occurred (bleeding area) was detected based on the number of pixels, and then the proportion of the area (bleeding area proportion) occupied per visual field was calculated. […]

[3] = test system: rat auricular subcutaneous blood vessel; experiment: Vasodilation in vivo, blood vessel diameter after intravenous administration
Procedure: Eight-week-old or older female rats (Wistar, body weight: approximately 200 g, n=1) were anesthetized by subcutaneous administration of urethane so as to be […] body weight. The hair of the auricles of the rats was then removed and the rats were fixed on a fixing table. After the fixing, the fixing table was placed under a microscope (Nikon OPTIphoto, produced by Nikon Corporation). In addition, a catheter was placed in the groin vein of the rat.
BisEP-C3 was dissolved in a saline solution to achieve a concentration of 3 mg/ml. The resulting saline solution containing BisEP-C3 was administered intravenously via the catheter so as to be 3 mg/kg body weight. Then, the hemodynamic course of the rat auricular subcutaneous blood vessel was photographed and recorded using a microscope at a predetermined period (30, 60, 120 or 180 minutes) before and after the administration.
The obtained images were classified into three blood vessel thicknesses (thick: 35-45 μm, medium: 15-20 μm, thin: 7-9 μm) based on the diameter of the blood vessel before administration. […] Further, for each selected site, the relative blood vessel diameter was calculated after the measurement of the blood vessel diameter, with the blood vessel diameter before administration being a reference (1). […] As a control, the blood vessel diameter was calculated in the same manner except that the saline solution was administered.

## CCN1N=C(C)/C(=C\C=C\c2c(C)nn(CC)c2O)C1=O [BisEp-C3, 2,4-dihydro-4-[3-(1-ethyl-5-hydroxy-3-methyl-1H-pyrazol-4-yl)-2-propen-1-ylidene]-2-ethyl-5-methyl-3H-pyrazol-3-one]
[1]; 0, 25, 50, 100, 200, 400, or 600 μmol/1, 3 minutes at room temperature, FIG. 14
  NO-eliminating ability: eliminated NO in a concentration-dependent manner
[1]; equal concentration, comparison with the superoxide test
  superoxide decrease compared with NO-eliminating ability: the proportion of the decrease in the production amount of superoxide is larger than the NO-eliminating ability
[2]; LPS instillation, 1 mg/kg intravenously then 1 mg/kg per hour, up to 180 minutes, FIGS. 12 and 13
  bleeding area and bleeding area proportion: no bleeding was observed
[2]; after LPS instillation, compared to the control
  rolling phenomena of leukocytes: a large number of rolling phenomena of leukocytes were observed
[3]; 3 mg/kg body weight intravenously, 30, 60, 120 or 180 minutes, versus saline control, FIG. 10
  relative value of the blood vessel diameter: dilated at any time after administration as compared to the control
[3]; thick 35-45 μm, medium 15-20 μm, thin 7-9 μm, 3 mg/kg intravenously
  severity of dilatation by blood vessel size: remarkably observed in the smaller blood vessels
